According to patent publication US20160221965A1, “DISUBSTITUTED TRIFLUOROMETHYL PYRIMIDINONES AND THEIR USE” (BAYER PHARMA AKTIENGESELLSCHAFT, priority 2013, published 2016):

What was measured:
Format in all cases: cell-based
murine CCR2 [1] = biological target: T1, murine CCR2 (Mus musculus, UniProt P51683); assay: Functional β-arrestin recruiting test with murine MCP-1 (B-2b); settings: U2OS β-arrestin cell line transfected with murine CCR2; agonist murine MCP-1
T1 construct: host or cells: U2OS β-arrestin cell line
T1 sequence (P51683 whole entry): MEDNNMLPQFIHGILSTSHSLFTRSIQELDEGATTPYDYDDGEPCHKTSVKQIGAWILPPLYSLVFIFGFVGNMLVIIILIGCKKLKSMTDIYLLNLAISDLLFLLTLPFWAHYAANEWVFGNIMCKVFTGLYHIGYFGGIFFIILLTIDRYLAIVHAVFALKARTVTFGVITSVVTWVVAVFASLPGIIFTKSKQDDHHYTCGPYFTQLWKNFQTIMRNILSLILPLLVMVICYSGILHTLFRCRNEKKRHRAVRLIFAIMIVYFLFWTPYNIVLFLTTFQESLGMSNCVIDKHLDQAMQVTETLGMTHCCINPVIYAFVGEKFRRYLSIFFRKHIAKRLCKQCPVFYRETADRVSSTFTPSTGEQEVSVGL
Description: (§1) The antagonistic action of test substances on CCR2 was determined in a β-arrestin test. The PathHunter β-arrestin GPCR test system (DiscoveRx Corporation, Ltd.) is a cell-based functional method for detecting binding of β-arrestin to an activated receptor. The molecular basis is a β-galactosidase complementation measured by the enzymatic conversion of a chemiluminescent substrate. The test cell used was a U2OS β-arrestin cell line transfected with murine CCR2 (93-0543C3, DiscoveRx Corporation, Ltd.).
(§2) The test substances were dissolved in dimethyl sulphoxide (DMSO) at a concentration of 10 mM and serially diluted with DMSO in steps of 1:3.16 for a 10-point dose/activity analysis. According to the desired test concentrations, the substances were pre-diluted in Tyrode with 2 mM CaCl2 and 0.05% BSA.
(§3) The cells, cultivated in MEM Eagle (supplemented with 10% FCS, 50 U/ml of penicillin, 50 μg/ml of streptomycin, 250 μg/ml of hygromycin and 500 μg/ml of geniticin), were sown at 2000 cells/25 μl in 384 well, μCLEAR/black cell culture plates from Greiner (#781092) and incubated at 37° C. for 24 h. The sowing medium consisted of Opti-MEM (supplemented with 1% FCS, 50 U/ml of penicillin and 50 μg/ml of streptomycin). The cells were pre-incubated for 10 min with 10 μl of the test substances diluted in buffer, and 10 μl of agonist solution [human MCP-1 (PeproTech, #300-04) in Tyrode with 0.05% BSA] were then added. The human MCP-1 was employed at the concentration which corresponds to the EC50 which had been determined in a preliminary test (usually about 3 nM). After 90 min of incubation at 37° C., the solution was removed, and recruitment of β-arrestin to CCR2 was detected with the aid of the PathHunter detection reagent (93-001, DiscoveRx Corporation, Ltd.) according to the instructions of the manufacturer. Luminescence was measured after an incubation time of 60 min using a proprietary luminescence imaging measuring instrument. The molar concentration of the test substance which caused 50% inhibition of the MCP-1 effect (IC50) was determined using a 4-parameter logistic function (Hill function).
The test was carried out in a manner identical to that described above under B-2a, but using murine MCP-1 (PeproTech, #250-10) as agonist.

murine CCR2 [2] = biological target: T1, murine CCR2; assay: Functional β-arrestin recruiting test with human MCP-1 (B-2a); settings: U2OS β-arrestin cell line transfected with murine CCR2; agonist human MCP-1 at EC50 (about 3 nM)
Description: as §1, §2, §3

human CCR2 = biological target: T2, human CCR2 (Homo sapiens, UniProt P41597); assay: Functional Ca2+ release test (B-1); settings: Chem-1 cell line transfected with human CCR2, inhibition of MCP-1 effect, MCP-1 at EC50 (about 5 nM), Fluo-4
T2 construct: host or cells: Chem-1 cell line
T2 sequence (P41597 1-360 isoform P41597-2): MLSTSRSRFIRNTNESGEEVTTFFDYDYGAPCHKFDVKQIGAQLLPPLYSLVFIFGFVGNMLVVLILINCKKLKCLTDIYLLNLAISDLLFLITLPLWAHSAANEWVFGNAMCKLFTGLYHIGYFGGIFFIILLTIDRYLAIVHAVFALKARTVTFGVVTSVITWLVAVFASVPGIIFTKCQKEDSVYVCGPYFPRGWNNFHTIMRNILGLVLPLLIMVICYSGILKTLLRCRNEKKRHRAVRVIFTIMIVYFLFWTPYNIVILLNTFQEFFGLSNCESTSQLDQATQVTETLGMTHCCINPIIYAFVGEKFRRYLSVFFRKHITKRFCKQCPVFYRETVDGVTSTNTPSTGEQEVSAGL
Description: The antagonistic action of test substances on CCR2 was determined in a functional Ca^2+ release test. Binding of CCL2/MCP-1 to CCR2 leads to a change in the conformation of the receptor resulting in Gi/Gq protein activation and intracellular signal cascade. This involves, inter alia, an intracellular Ca^2+ release. The test cell used was a Chem-1 cell line transfected with human CCR2 (ChemiSCREEN™ CCR2B Calcium-Optimized FLIPR Cell Line, Merck Millipore).
as §2
The cells, cultivated in DMEM high glucose [supplemented with 10% FCS, 1 mM pyruvate, 15 mM HEPES, 500 μg/ml geniticin and non-essential amino acids (NEAA)], were sown at 5000 cells/25 μl in 384 well, μCLEAR/black cell culture plates from Greiner (#781092) and incubated at 37° C. for 24 h. The sowing medium consisted of DMEM high glucose [supplemented with 5% FCS, 1 mM pyruvate, 15 mM HEPES, 50 U/ml penicillin, 50 μg/ml streptomycin and non-essential amino acids (NEAA)]. The medium was then removed and the cells were charged for 60 min at 37° C. with Fluo-4 dye [25 μl Tyrode with 3 μM Fluo-4 AM (1 mM DMSO stock solution), 0.4 mg/ml Brilliant Black, 2.5 mM probenicid, 0.03% Pluronic F-127]. The cells were pre-incubated for 10 min with 10 μl of the test substances diluted in buffer, and 20 μl of agonist solution (MCP-1 in Tyrode with 0.05% BSA) were then added. MCP-1 was employed at the concentration which corresponds to the EC50 which had been determined in a preliminary test (usually about 5 nM). Ca^2+ release was monitored over a period of 120 s in 1 s increments in a proprietary fluorescence imaging reader. The molar concentration of the test substance which caused 50% inhibition of the MCP-1 effect (IC50) was determined using a 4-parameter logistic function (Hill function).

Row | SMILES | IC50 (murine CCR2 [1]) | IC50 (murine CCR2 [2]) | IC50 (human CCR2)
1 | Nc1nc(C(F)(F)F)c(Oc2ccc(Cl)c(C(F)(F)F)c2)c(=O)[nH]1 [Example 2, 2-Amino-5-[4-chloro-3-(trifluoromethyl)phenoxy]-6-(trifluoromethyl)pyrimidin-4(3H)-one] | 69 nM | 23 nM | 3.3 nM
2 | Nc1nc(C(F)(F)F)c(Cc2ccc(Cl)c(Cl)c2)c(=O)[nH]1 [Example 1, 2-Amino-5-(3,4-dichlorobenzyl)-6-(trifluoromethyl)pyrimidin-4(3H)-one] | 312 nM | 200 nM | 19 nM
3 | Nc1nc(C(F)(F)F)c(Oc2ccc(Cl)c(OC(F)(F)F)c2)c(=O)[nH]1 [Example 57] | 2270 nM | – | 1.8 nM
4 | Cc1ccc(Oc2c(C(F)(F)F)nc(N)[nH]c2=O)cc1Cl [Example 71] | 1720 nM | – | 2.4 nM
5 | Nc1nc(C(F)(F)F)c(Oc2cccc(C(F)(F)F)c2)c(=O)[nH]1 [Example 75] | 9490 nM | – | 21 nM
6 | Nc1nc(C(F)(F)F)c(Oc2ccc(Cl)c(Cl)c2)c(=O)[nH]1 [Example 3, 2-Amino-5-(3,4-dichlorophenoxy)-6-(trifluoromethyl)pyrimidin-4(3H)-one] | 280 nM | 49 nM | 3.4 nM
7 | O=c1[nH]c(C2CCC2)nc(C(F)(F)F)c1Oc1ccc(Cl)c(Cl)c1 [Example 69] | 523 nM | – | 32 nM
8 | Nc1nc(C(F)(F)F)c(Oc2ccc(Cl)cc2)c(=O)[nH]1 [Example 73] | 2310 nM | – | 38 nM
9 | Nc1nc(C(F)(F)F)c(S(=O)(=O)c2ccc(Cl)c(Cl)c2)c(=O)[nH]1 [Example 63] | 2200 nM | – | 326 nM
10 | Cc1cc(Oc2c(C(F)(F)F)nc(N)[nH]c2=O)ccc1Cl [Example 72] | 545 nM | – | 1.5 nM
11 | Nc1nc(C(F)(F)F)c([S+]([O-])c2ccc(Cl)c(C(F)(F)F)c2)c(=O)[nH]1 (centres unmarked) [Example 60, 2-Amino-5-{[4-chloro-3-(trifluoromethyl)phenyl]sulphinyl}-6-(trifluoromethyl)pyrimidin-4(3H)-one] | 1430 nM | – | 117 nM
12 | Nc1nc(C(F)(F)F)c(Oc2ccc(C(F)(F)F)cc2)c(=O)[nH]1 [Example 74] | 4160 nM | – | 50 nM
13 | CC(C)Nc1nc(C(F)(F)F)c(Oc2ccc(Cl)c(Cl)c2)c(=O)[nH]1 [Example 65] | 1630 nM | – | 121 nM
